Laboratory results taken from article PMC4441267.

Assay: RuAAC macrocyclisation of azide/terminal alkyne linear peptidomimetics to 1,5-triazole ([Cp*RuCl]4 0.1 eq, Ar-degassed), then Boc removal (TMSCl/MeOH GP4 or HCl/dioxane GP5)
Settings: toluene (reflux), 1.25 mM, 111.0 °C, 18.0 h, 2 steps

COC(=O)[C@@H]1CCCn2nncc2CNC(=O)NC[C@H](N)C(=O)N1 [Boc-Dap(CONH-propargyl)-Orn(N3)-OMe]
ring closure, yield over several steps (from C#CCNC(=O)NC[C@H](NC(=O)OC(C)(C)C)C(=O)N[C@@H](CCCN=[N+]=[N-])C(=O)OC, 14-membered ring): 80%

COC(=O)[C@@H]1Cc2ccc(cc2)-n2nncc2CNC(=O)NC[C@H](N)C(=O)N1 [Boc-Dap(CONH-propargyl)-Phe(4-N3)-OMe]
ring closure, yield over several steps (from C#CCNC(=O)NC[C@H](NC(=O)OC(C)(C)C)C(=O)N[C@@H](Cc1ccc(N=[N+]=[N-])cc1)C(=O)OC, 16-membered ring): 27%

COC(=O)[C@@H]1CNC(=O)[C@H](Cc2ccccc2)n2nncc2CCC(=O)NCCCC[C@H](N)C(=O)N1 [Boc-Lys(4-pentynoyl)-Dap(N3-Phe)-OMe]
ring closure, yield over several steps (from C#CCCC(=O)NCCCC[C@H](NC(=O)OC(C)(C)C)C(=O)N[C@@H](CNC(=O)[C@H](Cc1ccccc1)N=[N+]=[N-])C(=O)OC, 18-membered ring): 90%

COC(=O)[C@@H]1CCCCn2nncc2CCC(=O)NCCCC[C@H](N)C(=O)N1 [Boc-Lys(4-pentynoyl)-Lys(N3)-OMe]
ring closure, yield over several steps (from C#CCCC(=O)NCCCC[C@H](NC(=O)OC(C)(C)C)C(=O)N[C@@H](CCCCN=[N+]=[N-])C(=O)OC, 18-membered ring): 37%

COC(=O)[C@@H]1Cc2ccc(cc2)-n2nncc2CCC(=O)NCCCC[C@H](N)C(=O)N1 [Boc-Lys(4-pentynoyl)-Phe(4-N3)-OMe]
ring closure, yield over several steps (from C#CCCC(=O)NCCCC[C@H](NC(=O)OC(C)(C)C)C(=O)N[C@@H](Cc1ccc(N=[N+]=[N-])cc1)C(=O)OC, 19-membered ring): 68%

COC(=O)[C@@H]1CNC(=O)[C@H](Cc2ccccc2)n2nncc2CCCC(=O)NCCCC[C@H](N)C(=O)N1 [Boc-Lys(5-hexynoyl)-Dap(N3-Phe)-OMe]
ring closure, yield over several steps (from C#CCCCC(=O)NCCCC[C@H](NC(=O)OC(C)(C)C)C(=O)N[C@@H](CNC(=O)[C@H](Cc1ccccc1)N=[N+]=[N-])C(=O)OC, 19-membered ring): 99%

COC(=O)[C@@H]1CCCCn2nncc2CCCC(=O)NCCCC[C@H](N)C(=O)N1 [Boc-Lys(5-hexynoyl)-Lys(N3)-OMe]
ring closure, yield over several steps (from C#CCCCC(=O)NCCCC[C@H](NC(=O)OC(C)(C)C)C(=O)N[C@@H](CCCCN=[N+]=[N-])C(=O)OC, 19-membered ring): 65%

COC(=O)[C@@H]1CCCCNC(=O)[C@H](Cc2ccccc2)n2nncc2CCCC(=O)NCCCC[C@H](N)C(=O)N1 [Boc-Lys(5-hexynoyl)-Lys(N3-Phe)-OMe]
ring closure, yield over several steps (from C#CCCCC(=O)NCCCC[C@H](NC(=O)OC(C)(C)C)C(=O)N[C@@H](CCCCNC(=O)[C@H](Cc1ccccc1)N=[N+]=[N-])C(=O)OC, 22-membered ring): 60%

COC(=O)[C@@H]1CCCn2nncc2CCCC(=O)NCCCC[C@H](N)C(=O)N1 [Boc-Lys(5-hexynoyl)-Orn(N3)-OMe]
ring closure, yield over several steps (from C#CCCCC(=O)NCCCC[C@H](NC(=O)OC(C)(C)C)C(=O)N[C@@H](CCCN=[N+]=[N-])C(=O)OC, 18-membered ring): 99%

COC(=O)[C@@H]1CNC(=O)[C@H](Cc2ccccc2)n2nncc2CNC(=O)NCCCC[C@H](N)C(=O)N1 [Boc-Lys(CONH-propargyl)-Dap(N3-Phe)-OMe]
ring closure, yield over several steps (from C#CCNC(=O)NCCCC[C@H](NC(=O)OC(C)(C)C)C(=O)N[C@@H](CNC(=O)[C@H](Cc1ccccc1)N=[N+]=[N-])C(=O)OC, 18-membered ring): 96%

COC(=O)[C@@H]1CCCCn2nncc2CNC(=O)NCCCC[C@H](N)C(=O)N1 [Boc-Lys(CONH-propargyl)-Lys(N3)-OMe]
ring closure, yield over several steps (from C#CCNC(=O)NCCCC[C@H](NC(=O)OC(C)(C)C)C(=O)N[C@@H](CCCCN=[N+]=[N-])C(=O)OC, 18-membered ring): 99%

COC(=O)[C@@H]1CCCCNC(=O)[C@H](Cc2ccccc2)n2nncc2CNC(=O)NCCCC[C@H](N)C(=O)N1 [Boc-Lys(CONH-propargyl)-Lys(N3-Phe)-OMe]
ring closure, yield over several steps (from C#CCNC(=O)NCCCC[C@H](NC(=O)OC(C)(C)C)C(=O)N[C@@H](CCCCNC(=O)[C@H](Cc1ccccc1)N=[N+]=[N-])C(=O)OC, 21-membered ring): 81%

COC(=O)[C@@H]1CCCn2nncc2CNC(=O)NCCCC[C@H](N)C(=O)N1 [Boc-Lys(CONH-propargyl)-Orn(N3)-OMe]
ring closure, yield over several steps (from C#CCNC(=O)NCCCC[C@H](NC(=O)OC(C)(C)C)C(=O)N[C@@H](CCCN=[N+]=[N-])C(=O)OC, 17-membered ring): 99%

COC(=O)[C@@H]1CNC(=O)[C@H](Cc2ccccc2)n2nncc2CCC(=O)NCCC[C@H](N)C(=O)N1 [Boc-Orn(4-pentynoyl)-Dap(N3-Phe)-OMe]
ring closure, yield over several steps (from C#CCCC(=O)NCCC[C@H](NC(=O)OC(C)(C)C)C(=O)N[C@@H](CNC(=O)[C@H](Cc1ccccc1)N=[N+]=[N-])C(=O)OC, 17-membered ring): 93%

COC(=O)[C@@H]1CCCCn2nncc2CCC(=O)NCCC[C@H](N)C(=O)N1 [Boc-Orn(4-pentynoyl)-Lys(N3)-OMe]
ring closure, yield over several steps (from C#CCCC(=O)NCCC[C@H](NC(=O)OC(C)(C)C)C(=O)N[C@@H](CCCCN=[N+]=[N-])C(=O)OC, 17-membered ring): 82%

COC(=O)[C@@H]1CCCCNC(=O)[C@H](Cc2ccccc2)n2nncc2CCC(=O)NCCC[C@H](N)C(=O)N1 [Boc-Orn(4-pentynoyl)-Lys(N3-Phe)-OMe]
ring closure, yield over several steps (from C#CCCC(=O)NCCC[C@H](NC(=O)OC(C)(C)C)C(=O)N[C@@H](CCCCNC(=O)[C@H](Cc1ccccc1)N=[N+]=[N-])C(=O)OC, 20-membered ring): 97%

COC(=O)[C@@H]1CCCn2nncc2CCC(=O)NCCC[C@H](N)C(=O)N1 [Boc-Orn(4-pentynoyl)-Orn(N3)-OMe]
ring closure, yield over several steps (from C#CCCC(=O)NCCC[C@H](NC(=O)OC(C)(C)C)C(=O)N[C@@H](CCCN=[N+]=[N-])C(=O)OC, 16-membered ring): 99%

COC(=O)[C@@H]1Cc2ccc(cc2)-n2nncc2CCC(=O)NCCC[C@H](N)C(=O)N1 [Boc-Orn(4-pentynoyl)-Phe(4-N3)-OMe]
ring closure, yield over several steps (from C#CCCC(=O)NCCC[C@H](NC(=O)OC(C)(C)C)C(=O)N[C@@H](Cc1ccc(N=[N+]=[N-])cc1)C(=O)OC, 18-membered ring): 62%

COC(=O)[C@@H]1CNC(=O)[C@H](Cc2ccccc2)n2nncc2CCCC(=O)NCCC[C@H](N)C(=O)N1 [Boc-Orn(5-hexynoyl)-Dap(N3-Phe)-OMe]
ring closure, yield over several steps (from C#CCCCC(=O)NCCC[C@H](NC(=O)OC(C)(C)C)C(=O)N[C@@H](CNC(=O)[C@H](Cc1ccccc1)N=[N+]=[N-])C(=O)OC, 18-membered ring): 46%

COC(=O)[C@@H]1CCCCn2nncc2CCCC(=O)NCCC[C@H](N)C(=O)N1 [Boc-Orn(5-hexynoyl)-Lys(N3)-OMe]
ring closure, yield over several steps (from C#CCCCC(=O)NCCC[C@H](NC(=O)OC(C)(C)C)C(=O)N[C@@H](CCCCN=[N+]=[N-])C(=O)OC, 18-membered ring): 99%

COC(=O)[C@@H]1CCCCNC(=O)[C@H](Cc2ccccc2)n2nncc2CCCC(=O)NCCC[C@H](N)C(=O)N1 [Boc-Orn(5-hexynoyl)-Lys(N3-Phe)-OMe]
ring closure, yield over several steps (from C#CCCCC(=O)NCCC[C@H](NC(=O)OC(C)(C)C)C(=O)N[C@@H](CCCCNC(=O)[C@H](Cc1ccccc1)N=[N+]=[N-])C(=O)OC, 21-membered ring): 86%

COC(=O)[C@@H]1CCCn2nncc2CCCC(=O)NCCC[C@H](N)C(=O)N1 [Boc-Orn(5-hexynoyl)-Orn(N3)-OMe]
ring closure, yield over several steps (from C#CCCCC(=O)NCCC[C@H](NC(=O)OC(C)(C)C)C(=O)N[C@@H](CCCN=[N+]=[N-])C(=O)OC, 17-membered ring): 99%

COC(=O)[C@@H]1Cc2ccc(cc2)-n2nncc2CCCC(=O)NCCC[C@H](N)C(=O)N1 [Boc-Orn(5-hexynoyl)-Phe(4-N3)-OMe]
ring closure, yield over several steps (from C#CCCCC(=O)NCCC[C@H](NC(=O)OC(C)(C)C)C(=O)N[C@@H](Cc1ccc(N=[N+]=[N-])cc1)C(=O)OC, 19-membered ring): 97%

COC(=O)[C@@H]1CNC(=O)[C@H](Cc2ccccc2)n2nncc2CNC(=O)NCCC[C@H](N)C(=O)N1 [Boc-Orn(CONH-propargyl)-Dap(N3-Phe)-OMe]
ring closure, yield over several steps (from C#CCNC(=O)NCCC[C@H](NC(=O)OC(C)(C)C)C(=O)N[C@@H](CNC(=O)[C@H](Cc1ccccc1)N=[N+]=[N-])C(=O)OC, 17-membered ring): 86%

COC(=O)[C@@H]1CCCCn2nncc2CNC(=O)NCCC[C@H](N)C(=O)N1 [Boc-Orn(CONH-propargyl)-Lys(N3)-OMe]
ring closure, yield over several steps (from C#CCNC(=O)NCCC[C@H](NC(=O)OC(C)(C)C)C(=O)N[C@@H](CCCCN=[N+]=[N-])C(=O)OC, 17-membered ring): 99%

COC(=O)[C@@H]1CCCCNC(=O)[C@H](Cc2ccccc2)n2nncc2CNC(=O)NCCC[C@H](N)C(=O)N1 [Boc-Orn(CONH-propargyl)-Lys(N3-Phe)-OMe]
ring closure, yield over several steps (from C#CCNC(=O)NCCC[C@H](NC(=O)OC(C)(C)C)C(=O)N[C@@H](CCCCNC(=O)[C@H](Cc1ccccc1)N=[N+]=[N-])C(=O)OC, 20-membered ring): 56%
